≈ marks a conversion by molar mass, not a printed value.
Assays:
[1] = tested on: Talaromyces funiculosus; test: Antifungal activity against Penicillium funiculosum ATCC 36839 after 72 hrs by serial dilution method; assay type: functional; conditions: ATCC 36839, 72 h
[2] = tested on: Escherichia coli; test: Antibacterial activity against Escherichia coli ATCC 35210 after 24 hrs by microdilution method; assay type: functional; conditions: ATCC 35210, 24 h
[3] = tested on: Talaromyces funiculosus; test: Fungicidal activity against Penicillium funiculosum ATCC 36839 incubated for 72 hrs followed by serial sub-cultivation for 72 hrs and measured after 72 hrs by serial dilution method; assay type: functional
[4] = tested on: Candida albicans; test: Fungicidal activity against Candida albicans incubated for 72 hrs followed by serial sub-cultivation for 72 hrs and measured after 72 hrs by serial dilution method; assay type: functional
[5] = tested on: Penicillium ochrochloron; test: Fungicidal activity against Penicillium ochrochloron ATCC 9112 incubated for 72 hrs followed by serial sub-cultivation for 72 hrs and measured after 72 hrs by serial dilution method; assay type: functional
[6] = tested on: Trichoderma viride; test: Antifungal activity against Trichoderma viride IAM 5061 after 72 hrs by serial dilution method; assay type: functional; conditions: IAM 5061, 72 h
[7] = tested on: Bacillus cereus; test: Antibacterial activity against Bacillus cereus after 24 hrs by microdilution method; assay type: functional
[8] = tested on: Escherichia coli; test: Bactericidal activity against Escherichia coli ATCC 35210 incubated for 24 hrs followed by serial sub-cultivation and measured after 24 hrs by microdilution method; assay type: functional
[9] = tested on: Micrococcus flavus; test: Antibacterial activity against Micrococcus flavus ATCC 10240 after 24 hrs by microdilution method; assay type: functional; conditions: ATCC 10240, 24 h
[10] = tested on: Bacillus cereus; test: Bactericidal activity against Bacillus cereus incubated for 24 hrs followed by serial sub-cultivation and measured after 24 hrs by microdilution method; assay type: functional
[11] = tested on: Listeria monocytogenes; test: Bactericidal activity against Listeria monocytogenes NCTC 7973 incubated for 24 hrs followed by serial sub-cultivation and measured after 24 hrs by microdilution method; assay type: functional
[12] = tested on: Aspergillus niger; test: Antifungal activity against Aspergillus niger ATCC 6275 after 72 hrs by serial dilution method; assay type: functional; conditions: ATCC 6275, 72 h
[13] = tested on: Trichoderma viride; test: Fungicidal activity against Trichoderma viride IAM 5061 incubated for 72 hrs followed by serial sub-cultivation for 72 hrs and measured after 72 hrs by serial dilution method; assay type: functional
[14] = tested on: Aspergillus niger; test: Fungicidal activity against Aspergillus niger ATCC 6275 incubated for 72 hrs followed by serial sub-cultivation for 72 hrs and measured after 72 hrs by serial dilution method; assay type: functional
[15] = tested on: Staphylococcus aureus; test: Bactericidal activity against Staphylococcus aureus ATCC 6538 incubated for 24 hrs followed by serial sub-cultivation and measured after 24 hrs by microdilution method; assay type: functional
[16] = tested on: Penicillium ochrochloron; test: Antifungal activity against Penicillium ochrochloron ATCC 9112 after 72 hrs by serial dilution method; assay type: functional; conditions: ATCC 9112, 72 h
[17] = tested on: Aspergillus ochraceus; test: Fungicidal activity against Aspergillus ochraceus ATCC 12066 incubated for 72 hrs followed by serial sub-cultivation for 72 hrs and measured after 72 hrs by serial dilution method; assay type: functional
[18] = tested on: Micrococcus flavus; test: Bactericidal activity against Micrococcus flavus ATCC 10240 incubated for 24 hrs followed by serial sub-cultivation and measured after 24 hrs by microdilution method; assay type: functional
[19] = tested on: Candida albicans; test: Antifungal activity against Candida albicans after 72 hrs by serial dilution method; assay type: functional
[20] = tested on: Aspergillus fumigatus; test: Antifungal activity against Aspergillus fumigatus after 72 hrs by serial dilution method; assay type: functional
[21] = tested on: Salmonella typhimurium; test: Antibacterial activity against Salmonella typhimurium ATCC 13311 after 24 hrs by microdilution method; assay type: functional, Salmonella enterica subsp. enterica serovar Typhimurium; conditions: Salmonella enterica, ATCC 13311, 24 h
[22] = tested on: Aspergillus fumigatus; test: Fungicidal activity against Aspergillus fumigatus incubated for 72 hrs followed by serial sub-cultivation for 72 hrs and measured after 72 hrs by serial dilution method; assay type: functional
[23] = tested on: Aspergillus versicolor; test: Fungicidal activity against Aspergillus versicolor ATCC 11730 incubated for 72 hrs followed by serial sub-cultivation for 72 hrs and measured after 72 hrs by serial dilution method; assay type: functional
[24] = tested on: Enterobacter cloacae; test: Bactericidal activity against Enterobacter cloacae incubated for 24 hrs followed by serial sub-cultivation and measured after 24 hrs by microdilution method; assay type: functional
[25] = tested on: Aspergillus ochraceus; test: Antifungal activity against Aspergillus ochraceus ATCC 12066 after 72 hrs by serial dilution method; assay type: functional; conditions: ATCC 12066, 72 h
[26] = tested on: Pseudomonas aeruginosa; test: Bactericidal activity against Pseudomonas aeruginosa ATCC 27853 incubated for 24 hrs followed by serial sub-cultivation and measured after 24 hrs by microdilution method; assay type: functional
[27] = tested on: Staphylococcus aureus; test: Antibacterial activity against Staphylococcus aureus ATCC 6538 after 24 hrs by microdilution method; assay type: functional; conditions: ATCC 6538, 24 h
[28] = tested on: Salmonella typhimurium; test: Bactericidal activity against Salmonella typhimurium ATCC 13311 incubated for 24 hrs followed by serial sub-cultivation and measured after 24 hrs by microdilution method; assay type: functional, Salmonella enterica subsp. enterica serovar Typhimurium
[29] = tested on: Enterobacter cloacae; test: Antibacterial activity against Enterobacter cloacae after 24 hrs by microdilution method; assay type: functional
[30] = tested on: Aspergillus versicolor; test: Antifungal activity against Aspergillus versicolor ATCC 11730 after 72 hrs by serial dilution method; assay type: functional; conditions: ATCC 11730, 72 h
[31] = tested on: Listeria monocytogenes; test: Antibacterial activity against Listeria monocytogenes NCTC 7973 after 24 hrs by microdilution method; assay type: functional; conditions: NCTC 7973, 24 h
[32] = tested on: Pseudomonas aeruginosa; test: Antibacterial activity against Pseudomonas aeruginosa ATCC 27853 after 24 hrs by microdilution method; assay type: functional; conditions: ATCC 27853, 24 h

Row | Structure (SMILES) | MIC [1] | MIC [2] | MFC99.5 [3] | MFC99.5 [4] | MFC99.5 [5] | MIC [6] | MIC [7] | MBC99.5 [8] | MIC [9] | MBC99.5 [10] | MBC99.5 [11] | MIC [12] | MFC99.5 [13] | MFC99.5 [14] | MBC99.5 [15] | MIC [16] | MFC99.5 [17] | MBC99.5 [18] | MIC [19] | MIC [20] | also measured
1 | O=C(Cc1nsc2ccccc12)NN1C(=O)CSC1c1ccccc1 (stereo unspecified) | 216 µM (≈ 79.8 µg/mL) | 216 µM (≈ 79.8 µg/mL) | 21.6 ×10⁻² umol/ml | 40.5 ×10⁻² umol/ml | 21.6 ×10⁻² umol/ml | 54 µM (≈ 20 µg/mL) | 216 µM (≈ 79.8 µg/mL) | 40.5 ×10⁻² umol/ml | 297 µM (≈ 110 µg/mL) | 40.5 ×10⁻² umol/ml | 40.5 ×10⁻² umol/ml | 162 µM (≈ 59.9 µg/mL) | 10.8 ×10⁻² umol/ml | 21.6 ×10⁻² umol/ml | 40.5 ×10⁻² umol/ml | 162 µM (≈ 59.9 µg/mL) | 10.8 ×10⁻² umol/ml | 40.5 ×10⁻² umol/ml | 216 µM (≈ 79.8 µg/mL) | 108 µM (≈ 39.9 µg/mL) | MIC [21]: 216 µM (≈ 79.8 µg/mL); MFC99.5 [22]: 40.5 ×10⁻² umol/ml; MFC99.5 [23]: 40.5 ×10⁻² umol/ml; MBC99.5 [24]: 21.4 ×10⁻² umol/ml; MIC [25]: 54 µM (≈ 20 µg/mL); MBC99.5 [26]: 40.5 ×10⁻² umol/ml; MIC [27]: 216 µM (≈ 79.8 µg/mL); MBC99.5 [28]: 40.5 ×10⁻² umol/ml; MIC [29]: 108 µM (≈ 39.9 µg/mL); MIC [30]: 216 µM (≈ 79.8 µg/mL); MIC [31]: 216 µM (≈ 79.8 µg/mL); MIC [32]: 216 µM (≈ 79.8 µg/mL)
2 | O=C(Cc1nsc2ccccc12)NN1C(=O)CSC1c1ccccc1Cl (stereo unspecified) | 100 µM (≈ 40.4 µg/mL) | 198 µM (≈ 80 µg/mL) | 19.8 ×10⁻² umol/ml | 37.2 ×10⁻² umol/ml | 19.8 ×10⁻² umol/ml | 74 µM (≈ 29.9 µg/mL) | 198 µM (≈ 80 µg/mL) | 37.2 ×10⁻² umol/ml | 273 µM (≈ 110 µg/mL) | 37.2 ×10⁻² umol/ml | 74.4 ×10⁻² umol/ml | 144 µM (≈ 58.2 µg/mL) | 10 ×10⁻² umol/ml | 19.8 ×10⁻² umol/ml | 37.2 ×10⁻² umol/ml | 144 µM (≈ 58.2 µg/mL) | 19.8 ×10⁻² umol/ml | 37.2 ×10⁻² umol/ml | 198 µM (≈ 80 µg/mL) | 372 µM (≈ 150 µg/mL) | MIC [21]: 198 µM (≈ 80 µg/mL); MFC99.5 [22]: 74.4 ×10⁻² umol/ml; MFC99.5 [23]: 10 ×10⁻² umol/ml; MBC99.5 [24]: 37.2 ×10⁻² umol/ml; MIC [25]: 100 µM (≈ 40.4 µg/mL); MBC99.5 [26]: 74.4 ×10⁻² umol/ml; MIC [27]: 198 µM (≈ 80 µg/mL); MBC99.5 [28]: 37.2 ×10⁻² umol/ml; MIC [29]: 273 µM (≈ 110 µg/mL); MIC [30]: 74 µM (≈ 29.9 µg/mL); MIC [31]: 372 µM (≈ 150 µg/mL); MIC [32]: 372 µM (≈ 150 µg/mL)
3 | O=C(NN1C(=O)CSC1c1c(F)cccc1F)c1nsc2ccccc12 (stereo unspecified) | 102 µM (≈ 39.9 µg/mL) | 102 µM (≈ 39.9 µg/mL) | 20.4 ×10⁻² umol/ml | 51 ×10⁻² umol/ml | 51 ×10⁻² umol/ml | 51 µM (≈ 20 µg/mL) | 102 µM (≈ 39.9 µg/mL) | 20.4 ×10⁻² umol/ml | 102 µM (≈ 39.9 µg/mL) | 20.4 ×10⁻² umol/ml | 40.8 ×10⁻² umol/ml | 204 µM (≈ 79.9 µg/mL) | 10.2 ×10⁻² umol/ml | 40.8 ×10⁻² umol/ml | 20.4 ×10⁻² umol/ml | 102 µM (≈ 39.9 µg/mL) | 10.2 ×10⁻² umol/ml | 20.4 ×10⁻² umol/ml | 408 µM (≈ 160 µg/mL) | 408 µM (≈ 160 µg/mL) | MIC [21]: 204 µM (≈ 79.9 µg/mL); MFC99.5 [22]: 51 ×10⁻² umol/ml; MFC99.5 [23]: 40.8 ×10⁻² umol/ml; MBC99.5 [24]: 20.4 ×10⁻² umol/ml; MIC [25]: 51 µM (≈ 20 µg/mL); MBC99.5 [26]: 40.8 ×10⁻² umol/ml; MIC [27]: 102 µM (≈ 39.9 µg/mL); MBC99.5 [28]: 40.8 ×10⁻² umol/ml; MIC [29]: 102 µM (≈ 39.9 µg/mL); MIC [30]: 204 µM (≈ 79.9 µg/mL); MIC [31]: 204 µM (≈ 79.9 µg/mL); MIC [32]: 204 µM (≈ 79.9 µg/mL)
